Assay results taken from article PMC8634746 (International Journal of Peptide Research and Therapeutics, 2021).
Peptide text beside a SMILES is read from it.

Biological target: S1-ACE2 complex (Severe acute respiratory syndrome coronavirus 2, UniProt P0DTC2)
Type: binding, human (ACE2); SARS-CoV-2 (S1)
Details: 5 μM peptide; preincubation 3 to 60 min

## CC(C)C[C@H](NC(=O)[C@H](CC(=O)O)NC(=O)[C@H](CCC(=O)O)NC(=O)[C@H](C)NC(=O)[C@H](CCC(=O)O)NC(=O)[C@H](Cc1c[nH]cn1)NC(=O)[C@H](CC(N)=O)NC(=O)[C@H](Cc1ccccc1)NC(=O)[C@H](CCCCN)NC(=O)[C@H](CC(=O)O)NC(=O)[C@H](CC(C)C)NC(=O)[C@H](Cc1ccccc1)NC(=O)[C@@H](NC(=O)[C@H](CCCCN)NC(=O)[C@H](C)NC(=O)[C@@H](N)CCC(N)=O)[C@@H](C)O)C(=O)N[C@@H](Cc1ccccc1)C(=O)N[C@@H](Cc1ccc(O)cc1)C(=O)N[C@@H](CCC(N)=O)C(N)=O (H-QAKTFLDKFNHEAEDLFYQ-NH2)
  half-life of preincubation-time effect on koff^rel: 14 min
